One assay has as its target T1, Acetolactate synthase, chloroplastic (Arabidopsis thaliana, UniProt P17597).
T1 sequence (P17597 whole entry): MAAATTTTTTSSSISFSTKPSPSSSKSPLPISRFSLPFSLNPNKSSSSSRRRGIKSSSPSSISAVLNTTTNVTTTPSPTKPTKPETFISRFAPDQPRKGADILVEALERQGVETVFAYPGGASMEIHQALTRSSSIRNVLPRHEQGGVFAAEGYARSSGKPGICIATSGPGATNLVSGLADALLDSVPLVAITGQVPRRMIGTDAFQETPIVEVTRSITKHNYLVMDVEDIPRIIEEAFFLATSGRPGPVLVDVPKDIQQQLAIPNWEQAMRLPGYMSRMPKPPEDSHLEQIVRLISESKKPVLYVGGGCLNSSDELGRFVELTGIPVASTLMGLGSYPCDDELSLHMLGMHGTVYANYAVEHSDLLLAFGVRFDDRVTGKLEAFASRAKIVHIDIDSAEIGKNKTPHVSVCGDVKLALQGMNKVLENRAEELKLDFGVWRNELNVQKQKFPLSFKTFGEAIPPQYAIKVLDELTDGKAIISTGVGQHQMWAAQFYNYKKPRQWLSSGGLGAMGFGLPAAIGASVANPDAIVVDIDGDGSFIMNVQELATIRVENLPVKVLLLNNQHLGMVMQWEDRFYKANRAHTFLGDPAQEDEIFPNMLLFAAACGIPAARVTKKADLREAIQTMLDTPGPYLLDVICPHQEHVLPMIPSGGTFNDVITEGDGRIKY
Kind of assay: Inhibitory activity against Acetolactate synthase (ALS) enzyme by using the rape-root growth method.
Details: not given
With `O=C(OCn1ccc(=O)[nH]c1=O)c1ccc(Br)cc1`, the IC50 is given as 55.38 p.p.m.

Consider `COc1ccccc1C(=O)OCn1ccc(=O)[nH]c1=O`, for which the IC50 is more than 100 p.p.m.

For the compound `O=C(OCn1ccc(=O)[nH]c1=O)c1ccc([N+](=O)[O-])cc1`, the IC50 is reported as more than 100 p.p.m.

The compound `Cc1ccnc(NS(=O)(=O)c2ccccc2[N+](=O)[O-])n1` yielded an IC50 of 0.000287 M l-1.

`O=C(OCn1ccc(=O)[nH]c1=O)c1ccccc1` came in with an IC50 of 55.36 p.p.m.

`O=C(OCn1ccc(=O)[nH]c1=O)c1ccc(F)cc1` registered an IC50 of 55.86 p.p.m.

Take `O=C(OCn1ccc(=O)[nH]c1=O)c1c(Cl)cc(C(F)(F)F)cc1Cl`: the IC50 is recorded as more than 100 p.p.m.

Take `Cc1cccc(C(=O)OCn2ccc(=O)[nH]c2=O)c1`: the IC50 stood at 16.04 p.p.m.

The compound `O=C(OCn1ccc(=O)[nH]c1=O)c1ccc(Cl)cc1` showed an IC50 of 51.29 p.p.m.

In turn, `COc1ccc(C(=O)OCn2ccc(=O)[nH]c2=O)cc1` displayed an IC50 of more than 100 p.p.m.

In turn, `Cc1ccc(NS(=O)(=O)c2ccc(F)cc2)nc1` had an IC50 of 0.000152 M l-1.

In the case of `O=C(OCn1ccc(=O)[nH]c1=O)c1ccc(I)cc1`, the IC50 is more than 100 p.p.m.

For `Cc1cnc(NS(=O)(=O)c2cc(Cl)ccc2Cl)s1`, the IC50 is more than 0.000309 M l-1.

With `COc1cc(Cl)nc(NS(=O)(=O)c2ccc(F)cc2)n1`, the IC50 was found to be 0.000111 M l-1.

The same assay, now with this note: read-out: IC50.
Regarding `O=S(=O)(Nc1nccs1)c1cc(Cl)ccc1Cl`, the IC50 stood at 84.7 µM.

Consider `Cc1ccnc(NS(=O)(=O)c2ccc(F)cc2)n1`, for which the IC50 came to 38.9 µM.

Turning to `Cc1ccnc(NS(=O)(=O)c2cc(Cl)ccc2Cl)n1`, the IC50 is 97.2 µM.

Regarding `Cc1ccnc(NS(=O)(=O)c2ccc(Br)cc2)n1`, the IC50 was 58.9 µM.

Consider `Cc1cc(C)nc(NS(=O)(=O)c2cc(Cl)ccc2Cl)n1`, for which the IC50 was 33 µM.
